The results in this text go back to US20260373132A1, “PERK INHIBITORHC-5404 IN COMBINATION WITH ANTI-PD-1 ANTIBODY AND/OR AN ANTIANGIOGENETIC AGENT FOR USE IN THE TREATMENT OF CANCER” (HIBERCELL, INC., priority 2022, published 2026).

Data set [1] is described as follows: mouse plasma pharmacokinetics after single oral administration. The class given is in vivo. On the procedure:
Initial in vivo studies aimed at understanding the pharmacokinetic and pharmacodynamic (PK/PD) relationship and optimizing the dosing regimen were conducted. HC-5404 was quantified from mouse plasma following a single oral administration (PO) at doses ranging from 3 to 100 mg/kg. […] Mouse plasma protein binding (PPB %) was determined to be 95.6%, which enabled us to calculate the free drug plasma exposure across time (FIG. 18).

The test system of data set [2] is ASNS, CBS and CTH in 786-O tumors. Kind of data set: ASNS, CBS and CTH in 786-O tumors. The format is in vivo, mouse. The conditions noted are these: HC-5404 treatment (FIG. 29). On the procedure:
Samples were put in 500 μL of Novex lysis buffer consisting of 2× Novex Tris-Glycine SDS sample buffer (ThermoFisher LC2676), 1× Phosphatase Inhibitor Cocktail III (Sigma P0044), 1× PhosphataseArrest I (Gbioscience 113P-D), 1×2-mercaptoethanol (Gibco 21985023), 1× Benzonase (EMD Millipore Corp 70746-3), and 1× Protease inhibitor cocktail tablet (Roche/Sigma 11836170001). Samples were homogenized with the Polytron and heated for 10 min at 95 °C. They were then centrifuged at max speed for 10 min and the supernatant was transferred. Protein concentrations of samples were measured using the Pierce 660 nm Protein assay kit (Thermo Scientific 22660) according to the manufacturer's instructions.
Western Blot analysis was performed on the SimpleWestern high-throughput protein analysis platform (ProteinSimple 004-650) according to manufacturer's protocol using a 12-230 kDA Separation Module (ProteinSimple SM-W004) and Total Protein Detection Module (ProteinSimple DM-TP01). Antibodies used were: (Add info for other antibodies used) pPERK (Lilly; 1:50) and PERK (Cell Signaling Technology 5683; 1:200). All protein analytes were normalized to total protein loaded on capillary.
The effect of HC-5404 was further validated in tumors by assessing the response of markers of in vivo PERK inhibition. […]

In data set [3] the test system is tumor vasculature of 786-O xenografts. Briefly: IHC of tumor vasculature in 786-O xenografts. The format is in vivo, mouse. Here is the method:
Formalin-fixed paraffin-embedded samples were sectioned at 5 μm thickness and mounted on Superfrost Plus microscope slides (Fisher Scientific). All immunohistochemical (IHC) staining was performed on Bond Rx auto-stainer (Leica Biosystems) using the conventional TSA-amplified detection system. Primary antibodies used were as follows: α-CD31 (Abcam #ab182981), α-smooth muscle actin (SMA; Abcam #ab124964), α-Meca32 (Novus Biologicals #NB100-77668). TSA-conjugated Alexa488 and Alexa647 fluorophores from Invitrogen (#B40953 and #B40958) were used at 1:500 dilution. Slides were counterstained with DAPI and cover slipped using Mowiol antifade mounting media (Sigma #D2522).
Slides were imaged with Aperio Versa 200 (Leica Biosystems) whole-slide scanner using 10×/0.32NA objective, and the data were analyzed using custom-written macros in ImageJ/FIJI (NIH). Briefly, 150 μm of outer edges of the tumor sections were eliminated from the analysis. Gaussian-blurred DAPI channel was used to measure the area of the tissue. Scans of […] were processed with median filter to remove noise, then positive areas were measured with appropriate threshold levels. % positive area for each marker was calculated. CD31-SMA double positive areas were measured via image calculation of the binary images. One-way ANOVA and pair-wise comparisons were performed on the data using Prism GraphPad.
PERK is an adaptive stress response that links hypoxia and nutrient deprivation with proangiogenic signaling. The effect of HC-5404 on tumor vasculature when administered in combination with antiangiogenic VEGFR-TKIs was investigated.
As immature blood vessels mature, they develop a mural layer of cells that express smooth muscle actin (SMA), which encircles and stabilizes the maturing vessel. Co-staining for both CD31 and SMA was conducted to determine whether treatments were affecting mature or immature tumor blood vessels.
This example investigated the inhibition the effect of cabozantinib on the formation of new tumor vasculature and on pericytes following procedures analogous to those described above.

Data set [4] deals with pro-angiogenic cytokines in mouse plasma. Briefly: plasma pro-angiogenic cytokines, mice bearing 786-O tumors. The format is in vivo. On the procedure: Mouse plasma sampled following 7 days of treatment with HC-5404 (30 mpk, PO, BID) and cabozantinib (30 mpk, PO, QD). Multiple cytokines associated with angiogenesis were quantified by Illumina multiplex.
Plasma analysis from mice bearing 786-O tumors, treated with HC-5404 at 3, 10, or 30 mg/kg (PO; BID) as a single agent or in combination with cabozantinib (30 mg/kg; PO; QD). Multiple cytokines associated with angiogenesis were quantified by Illumina multiplex (FIG. 86, FIG. 87, FIG. 88, FIG. 89, FIG. 90).

For data set [5], the system named is SMTCA75. Briefly: RCC PDX single animal trial, SMTCA75. The format is in vivo, mouse. Particulars: HC-5404 30 mg/kg PO BID, n=1. From the text:
This example investigated the effect of HC-5404 in combination with VEGFR-TKIs in inhibiting tumor growth using 12 RCC PDX tumor models, following procedures analogous to those described above.
Single animal per group (n=1) trial of animals harboring diverse RCC PDX models were used in this study.

Structures are written as SMILES.

As for `Cc1cc(NC(=O)[C@H](O)c2cc(F)cc(F)c2)ccc1-c1cnc(N)c(C(=O)NC(C)C)c1` [HC-5404, (R)-2-amino-5-(4-(2-(3,5-difluorophenyl)-2-hydroxyacetamido)-2-methylphenyl)-N-isopropylnicotinamide], the “free drug (unbound) plasma exposure at Cmax / 1 h” value in data set [1] (PO, 30 mg/kg) worked out at 355 nM. For the same compound, the concentration at 1 h in data set [1] (plasma, PO, 30 mg/kg) stood at 3670 ng/mL. Further, the concentration at 12 h in data set [1] (plasma, single PO, 100 mg/kg, read-out: plasma exposure up to 12 h after dosing) was greater than 3200 ng/mL. For the same compound, the Tmax in data set [1] (plasma, single PO, 3 to 100 mg/kg, read-out: time of Cmax) is less than 1 h. Moreover, in data set [1] (single PO, 100 mg/kg), the “unbound plasma concentration at Cmax” value was determined as 1605 nM and the “unbound plasma exposure up to 12 h after dosing” value was greater than 311 nM. The same compound had an average half-life in data set [1] (single PO, 3 to 100 mg/kg) of 2.22 h. The “dose proportionality of exposure” value in data set [1] (single PO, up to 100 mg/kg) is recorded as “Dose-proportional increases in exposure”. For the same compound, in data set [2], the “accumulation of ASNS, CBS and CTH” value was “dose-dependent accumulation of ASNS, CBS and CTH”. In addition, the “expression of any vascular markers” value in data set [3] (HC-5404 single agent (FIG. 39)) is listed as “did not affect the expression of any vascular markers”. The “proportion of Meca32 expressing vascular endothelial cells” value in data set [3] (axitinib study (FIG. 38, 39)) is given as “did not affect this vascular endothelium marker”. Moreover, the VEGF-A in plasma result in data set [4] (3, 10, 30 mg/kg PO BID (FIG. 86)) is “decreased in plasma by HC-5404 as a single agent in a dose-dependent fashion”. In addition, in data set [4] (3, 10, 30 mg/kg PO BID, alone or with cabozantinib (FIG. 89)), the LYVE-1 in plasma entry is on record as “decreased by HC-5404 in a dose-dependent manner”. Further, the Syndecan in plasma result in data set [4] (3, 10, 30 mg/kg PO BID, alone or with cabozantinib (FIG. 90)) is reported as “decreased by HC-5404 as monotherapy”. In addition, the “antitumor efficacy as monotherapy” value in data set [5] is recorded as “exhibited antitumor efficacy”.
